The source of these data is PubChem BioAssay AID602464 (Sanford-Burnham Center for Chemical Genomics, 2012).

The assay has as its system Gli-responsive luciferase reporter cells, SUFU pathway antagonism. In words: Gli-SUFU pathway antagonists, dose response, cell-based, luciferase luminescence, uHTS hits (AID 602464).

Calls of active or inactive are those of the source. No stated cut-off is given here; in the data, active means IC50 below about 20 µM; inactive means the rest. A value given as a limit tells only on which side of the number the result lay.

Turning to `COc1ccccc1-c1c(-c2ccc(O)cc2O)n[nH]c1C(F)(F)F`, the 50% inhibitory concentration (IC50) is 4.86 µM.
As for `Cc1cc(=O)[nH]c(SCC(=O)/C=C2\N(C)c3ccccc3C2(C)C)n1`, the figure is 5.13 µM.
The result for `Cc1nn(C)c(C(=O)NCc2ccc(Cl)cc2)c1Cl` reads 8.1 µM; that for `FC(F)Oc1ccc(-c2c[n+]3c(n2-c2ccccc2)CCCCC3)cc1`, 7.36 µM.
Turning to `CC(C)=CCC/C(C)=C/CNC(=O)C[C@H]1C[C@H](C(=O)N2CCOCC2)[C@@]2(C)c3[nH]c4cc(CCC(=O)N(C)C)ccc4c3CCN2C1=O`, the IC50 is 4.63 µM.
As for `O=C(N[C@H]1C/C=C\C[C@@H](CC(=O)N(CCO)Cc2ccccc2)C(=O)NC[C@H](c2ccccc2)OC1=O)OCC1c2ccccc2-c2ccccc21`, the IC50 was 7.18 µM.
Turning to `Cc1cc(Br)c(S(=O)(=O)NCc2ccncc2)cc1C`, the half-inhibitory concentration (IC50) was 8.04 µM.
On to `COc1cc(C(=O)NC2CCN(C)CC2)ccc1Nc1ncc2c(n1)N(C1CCCCC1)CCC(=O)N2C`, for which the 50% inhibitory concentration (IC50) is 1.6 µM.
As to `Cc1ccc(S(=O)(=O)N2CCN(C(=O)C3CCN(c4ncnc5sc(C)c(C)c45)CC3)CC2)c(C)c1`, the half-maximal inhibitory concentration (IC50) is 7.57 µM.
As for `COc1ccccc1CN(Cc1nc2ccccc2c(=O)[nH]1)S(=O)(=O)c1ccc(C)cc1`, the figure is > 20 µM (inactive).
For `Cc1nn(C)c(C)c1/C=C/C(=O)c1ccc(Cl)cc1Cl`, the concentration for half-maximal inhibition (IC50) is 7.53 µM.
Regarding `CCOc1ccc(-n2c(-c3ccc(Cl)cc3)c[n+]3c2SCC3)cc1`, the IC50 is 3.49 µM.
For the molecule `CCC(=O)c1ccc(OCC(O)Cn2c(C)nc3ccccc32)cc1` (configuration not stated), the IC50 was 7.89 µM.
With `O=C(NCCc1cccc(Cl)c1)c1ccc(OC2CCN(Cc3ccccn3)CC2)cc1`, the IC50 was 7.72 µM.
As to `Cn1c(=O)c2c(nc(NCCOc3ccc(C(C)(C)C)cc3)n2C)n(C)c1=O`, the IC50 is > 20 µM (inactive).
As for `CNS(=O)(=O)c1cccc(C(=O)OCC(=O)c2cc(C)n(CC3CCCO3)c2C)c1` (configuration not stated), the figure is 0.735 µM; as for `Cn1nc(CC(=O)NCc2ccc(C(F)(F)F)cc2)c2ccccc2c1=O`, 6.65 µM; as for `CCCCn1c(SCc2c(C)noc2C)nc2cc(S(N)(=O)=O)ccc21`, 4.21 µM.
The result for `CCCCCCCNC1=CC(=O)CC(c2ccccc2)C1` (configuration not stated) reads 8.04 µM; that for `CCn1c(=NC(=O)CS(=O)(=O)c2ccccc2)sc2cccc(OC)c21`, 3.95 µM; that for `CC(C)C(=O)N1CCN(c2ccccc2NC(=O)COc2ccccc2)CC1`, > 20 µM (inactive).
Take `Cc1ccc(OCCOC(=O)c2cc(S(=O)(=O)N3CCCCC3)ccc2N2CCOCC2)cc1`: the IC50 was > 20 µM (inactive).
As to `O=C(C[C@H]1C/C=C\C[C@H](NC(=O)OCC2c3ccccc3-c3ccccc32)C(=O)OC[C@@H]2CCCN2C1=O)N[C@H](CO)Cc1ccccc1`, the IC50 was > 20 µM (inactive).
`O=[N+]([O-])c1ccc(N2CCN(C(=S)NCc3ccc(Cl)cc3)CC2)cc1`: the IC50 is 11.9 µM.
`C=C(C)CSc1nc2sc3c(c2c(=O)n1C1CCCCC1)CCN(C)C3`: the half-maximal inhibitory concentration (IC50) was 8.67 µM.
Consider `C=CCNC(=S)/N=c1/ccccn1Cc1ccccc1`, for which the IC50 was 11.9 µM.
Turning to `Cc1nn(Cc2noc(C(=O)NC3CCC(C)CC3)n2)c(C)c1Br` (configuration not stated), the IC50 is 8.59 µM.
The result for `C[n+]1c2n(c3ccccc31)N=C(c1ccc(-c3ccccc3)cc1)CS2` reads 1.32 µM; that for `Cc1ccc(S(=O)(=O)NCCC2=CCCCC2)cc1C(N)=O`, 8.71 µM.
Take `CCCCCCCOc1ccc(OC(=O)c2cccnc2)cc1`: the half-maximal inhibitory concentration (IC50) is 1.06 µM.
In the case of `Cc1nnsc1C(=O)NC1CCCc2c1cnn2-c1ccc(F)cc1F` (configuration not stated), the concentration for half-maximal inhibition (IC50) is 8.15 µM.
The result for `O=C(Cc1csc(Nc2nc(=S)[nH]c3ccccc23)n1)NCCCN1CCN(c2ccccc2F)CC1` reads > 20 µM (inactive).
For the molecule `COc1ccccc1CCNC(=O)c1cc(-c2ccncc2)nc2ccc(Br)cc12`, the IC50 is > 20 µM (inactive).
With `CCn1c(=NC(=O)CCS(=O)(=O)c2ccccc2)sc2cccc(OC)c21`, the IC50 is 3.11 µM.
In the case of `CN(Cc1ccc(OC(F)F)cc1)C(=O)c1cccc(S(=O)(=O)N2CCN(Cc3ccccc3)CC2)c1`, the IC50 is 6.92 µM.
With `CCCn1c(SCC(=O)Nc2nc(-c3ccc(OC)cc3)cs2)nc2c1c(=O)n(C)c(=O)n2C`, the IC50 is > 20 µM (inactive).
Take `CCOC(=O)CSc1c(-c2cccs2)[nH]c2ccccc12`: the IC50 was 3.69 µM.
In the case of `c1ccc(C[n+]2cccc(-c3ccccc3)c2)cc1`, the concentration for half-maximal inhibition (IC50) is 10.8 µM.
In the case of `O=C(c1cccc(S(=O)(=O)N2CCN(c3ccccc3)CC2)c1)N1CCCC(C(F)(F)F)C1` (configuration not stated), the half-maximal inhibitory concentration (IC50) is 8.01 µM.
For the molecule `CCCC(C)C(=O)Nc1nc(C)c(-c2csc(Nc3ccc(Cl)cc3)n2)s1` (configuration not stated), the IC50 was 6.48 µM.
With `C[N+]1(CC(=O)OC2CCCCCCCCCCC2)CCCC1`, the IC50 was 19.3 µM.
Consider `O=C(Nc1ccncc1)c1ccc(-c2ccccc2)cc1`, for which the IC50 is 6.43 µM.
`Brc1ccc(-[n+]2c(-c3ccccc3)cc(-c3ccccc3)cc2-c2ccccc2)cc1`: the IC50 is 4.82 µM.
The result for `Cc1cc(N/N=C/c2ccc(O)cc2O)nc(-n2nc(C)cc2C)n1` reads 7.17 µM.
As for `CCC(C(=O)NCCC(C)C)n1ccc2cc(S(=O)(=O)N3CCCCC3)ccc21` (configuration not stated), the figure is 8.88 µM; as for `CC1CCN(c2c(NCc3ccc(C(=O)N4c5ccccc5CC4C)cc3)c(=O)c2=O)CC1` (configuration not stated), 5.18 µM.
With `CCOC(=O)N1CCN(C(=O)c2ccc(CSc3ccc(Cl)cc3)cc2)CC1`, the 50% inhibitory concentration (IC50) is 10.8 µM.
In the case of `COc1ccccc1NS(=O)(=O)c1cccc(C(=O)NC2CCN(Cc3ccccc3)CC2)c1`, the IC50 is > 20 µM (inactive).
The result for `COc1ccc(C(C(=O)NC2CCCCC2)N(C(=O)CCl)c2ccc(Cl)cc2)cc1` (configuration not stated) reads 4.5 µM; that for `CN(Cc1nccs1)C(=O)c1cc(COc2cccc3cnccc23)on1`, 12 µM.
With `C#CC[N+](C)(C)CCCCCCCCCCCC`, the IC50 was 2.51 µM.
With `O=C(c1cc(COc2cccc3cnccc23)on1)N1CCCC(CCCO)C1` (configuration not stated), the 50% inhibitory concentration (IC50) was 1.53 µM.
Take `O=C(/C=C/c1ccco1)Nc1ccc(-c2nc3ccccc3[nH]2)cc1`: the half-maximal inhibitory concentration (IC50) was 1.99 µM.
The result for `S=C(Nc1ccccc1)N1CCC(Cc2ccccc2)CC1` reads 5.67 µM.
Regarding `CCOc1ccc(OCc2ccc(C(=O)NN=Cc3ccc[nH]3)cc2)cc1`, the IC50 was 2.44 µM.
For the molecule `CCCCOc1ccc(N2C(N)=NC(N)=NC23CCCCC3)cc1`, the half-inhibitory concentration (IC50) was 17.1 µM.
The result for `CC[C@@H](O)C[C@H]1CCC[C@@]2(C[C@@H]3OC(=O)/C=C/[C@@](C)(O)[C@@H](O)[C@H](C)[C@@H](O)[C@H](OC4CCC(N(C)C)C(C)O4)[C@@H](O)[C@](C)(O)CCCCC/C=C/[C@@H]4CC(C)(C)O[C@@]4(O)C[C@H](O2)[C@H]3C)O1` (some centres not stated) reads less than 0.00977 µM.

What is called IC50 is the midpoint of a concentration-inhibition curve.
